According to the kinase profiling compilation of Christmann-Franck et al. (2016):

Biological target: MAPK14 (human) (UniProt Q16539)
Test: radiometric filter-binding kinase assay, Kinase HotSpot
Conditions: compound 0.5 µM; ATP 10 µM

Sequence of MAPK14 (human) (Q16539 whole entry, looked up): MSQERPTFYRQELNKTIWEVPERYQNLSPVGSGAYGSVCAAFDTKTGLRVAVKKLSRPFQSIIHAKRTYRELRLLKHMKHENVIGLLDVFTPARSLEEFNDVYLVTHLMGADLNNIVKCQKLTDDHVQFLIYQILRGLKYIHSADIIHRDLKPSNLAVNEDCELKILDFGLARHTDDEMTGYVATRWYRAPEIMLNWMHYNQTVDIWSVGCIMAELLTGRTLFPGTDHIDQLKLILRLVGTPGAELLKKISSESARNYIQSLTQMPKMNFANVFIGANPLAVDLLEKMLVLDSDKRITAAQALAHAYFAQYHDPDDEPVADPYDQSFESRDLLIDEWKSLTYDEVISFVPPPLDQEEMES

SMILES | residual activity
Nc1nc(Nc2ccc(S(N)(=O)=O)cc2)nn1C(=S)Nc1c(F)cccc1F | 95.4%
O=C1Cc2c([nH]c3ccc([N+](=O)[O-])cc23)-c2ccccc2N1 | 92.1%
Cc1ccc(NC(=O)c2ccc(CN3CCN(C)CC3)cc2)cc1Nc1nc(-c2cccnc2)cs1 | 98.1%
O=c1cc(N2CCNCC2)oc2c(-c3ccccc3)cccc12 | 82.8%

Biological target: FES (human) (UniProt P07332)
Test: as above
Conditions: compound 0.5 µM; ATP 10 µM

SMILES | residual activity
Nc1nc(Nc2ccc(S(N)(=O)=O)cc2)nn1C(=S)Nc1c(F)cccc1F | 10.2%
O=C1Cc2c([nH]c3ccc([N+](=O)[O-])cc23)-c2ccccc2N1 | 46.3%
Cc1ccc(NC(=O)c2ccc(CN3CCN(C)CC3)cc2)cc1Nc1nc(-c2cccnc2)cs1 | 105%
O=c1cc(N2CCNCC2)oc2c(-c3ccccc3)cccc12 | 95.4%

Biological target: PRKG2 (human) (UniProt Q13237)
Test: as above
Conditions: compound 0.5 µM; ATP 10 µM

Sequence of PRKG2 (human) (Q13237 whole entry, looked up): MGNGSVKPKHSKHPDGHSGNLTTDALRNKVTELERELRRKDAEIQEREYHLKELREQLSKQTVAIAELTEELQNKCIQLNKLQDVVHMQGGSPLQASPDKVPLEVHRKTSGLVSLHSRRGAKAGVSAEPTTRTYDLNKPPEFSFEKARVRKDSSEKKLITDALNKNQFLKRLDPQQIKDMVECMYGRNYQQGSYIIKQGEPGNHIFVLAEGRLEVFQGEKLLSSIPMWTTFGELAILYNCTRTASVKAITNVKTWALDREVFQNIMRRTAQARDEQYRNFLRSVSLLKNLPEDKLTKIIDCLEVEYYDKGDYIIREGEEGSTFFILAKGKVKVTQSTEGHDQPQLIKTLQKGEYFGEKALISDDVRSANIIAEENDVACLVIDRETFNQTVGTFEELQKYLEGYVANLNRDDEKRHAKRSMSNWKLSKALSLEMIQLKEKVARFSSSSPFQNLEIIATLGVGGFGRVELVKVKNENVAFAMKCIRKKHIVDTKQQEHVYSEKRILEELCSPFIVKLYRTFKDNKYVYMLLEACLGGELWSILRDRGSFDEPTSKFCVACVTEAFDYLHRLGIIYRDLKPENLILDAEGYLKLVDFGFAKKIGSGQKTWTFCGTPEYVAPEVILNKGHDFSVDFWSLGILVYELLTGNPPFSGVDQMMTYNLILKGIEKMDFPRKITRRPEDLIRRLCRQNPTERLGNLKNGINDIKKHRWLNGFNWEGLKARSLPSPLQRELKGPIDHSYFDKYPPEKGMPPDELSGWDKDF

SMILES | residual activity
Nc1nc(Nc2ccc(S(N)(=O)=O)cc2)nn1C(=S)Nc1c(F)cccc1F | 61.4%
O=C1Cc2c([nH]c3ccc([N+](=O)[O-])cc23)-c2ccccc2N1 | 97.6%
Cc1ccc(NC(=O)c2ccc(CN3CCN(C)CC3)cc2)cc1Nc1nc(-c2cccnc2)cs1 | 95.4%
O=c1cc(N2CCNCC2)oc2c(-c3ccccc3)cccc12 | 107%

Biological target: FGR (human) (UniProt P09769)
Test: as above
Conditions: compound 0.5 µM; ATP 10 µM

SMILES | residual activity
Nc1nc(Nc2ccc(S(N)(=O)=O)cc2)nn1C(=S)Nc1c(F)cccc1F | 17.1%
O=C1Cc2c([nH]c3ccc([N+](=O)[O-])cc23)-c2ccccc2N1 | 50.3%
Cc1ccc(NC(=O)c2ccc(CN3CCN(C)CC3)cc2)cc1Nc1nc(-c2cccnc2)cs1 | 43.6%
O=c1cc(N2CCNCC2)oc2c(-c3ccccc3)cccc12 | 99.9%

Biological target: YES1 (human) (UniProt P07947)
Test: as above
Conditions: compound 0.5 µM; ATP 10 µM

SMILES | residual activity
Nc1nc(Nc2ccc(S(N)(=O)=O)cc2)nn1C(=S)Nc1c(F)cccc1F | 10.5%
O=C1Cc2c([nH]c3ccc([N+](=O)[O-])cc23)-c2ccccc2N1 | 42.3%
Cc1ccc(NC(=O)c2ccc(CN3CCN(C)CC3)cc2)cc1Nc1nc(-c2cccnc2)cs1 | 50.7%
O=c1cc(N2CCNCC2)oc2c(-c3ccccc3)cccc12 | 96.4%

Biological target: TGFBR1 (human) (UniProt P36897)
Test: as above
Conditions: compound 0.5 µM; ATP 10 µM

SMILES | residual activity
Nc1nc(Nc2ccc(S(N)(=O)=O)cc2)nn1C(=S)Nc1c(F)cccc1F | 81.8%
O=C1Cc2c([nH]c3ccc([N+](=O)[O-])cc23)-c2ccccc2N1 | 103%
Cc1ccc(NC(=O)c2ccc(CN3CCN(C)CC3)cc2)cc1Nc1nc(-c2cccnc2)cs1 | 98.5%
O=c1cc(N2CCNCC2)oc2c(-c3ccccc3)cccc12 | 97.3%

Biological target: PHKG1 (human) (UniProt Q16816)
Test: as above
Conditions: compound 0.5 µM; ATP 10 µM

Sequence of PHKG1 (human) (Q16816 whole entry, looked up): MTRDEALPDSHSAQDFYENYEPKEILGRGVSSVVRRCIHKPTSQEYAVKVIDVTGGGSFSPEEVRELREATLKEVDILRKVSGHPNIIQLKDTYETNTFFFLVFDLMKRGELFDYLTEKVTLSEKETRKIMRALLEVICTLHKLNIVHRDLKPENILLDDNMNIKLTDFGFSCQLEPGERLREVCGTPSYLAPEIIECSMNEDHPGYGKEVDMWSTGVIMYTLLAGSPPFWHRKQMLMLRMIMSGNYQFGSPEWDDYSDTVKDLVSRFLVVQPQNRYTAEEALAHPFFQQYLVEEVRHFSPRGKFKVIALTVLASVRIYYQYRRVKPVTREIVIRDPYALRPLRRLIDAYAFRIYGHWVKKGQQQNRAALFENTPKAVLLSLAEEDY

SMILES | residual activity
Nc1nc(Nc2ccc(S(N)(=O)=O)cc2)nn1C(=S)Nc1c(F)cccc1F | 26%
O=C1Cc2c([nH]c3ccc([N+](=O)[O-])cc23)-c2ccccc2N1 | 9.22%
Cc1ccc(NC(=O)c2ccc(CN3CCN(C)CC3)cc2)cc1Nc1nc(-c2cccnc2)cs1 | 92.2%
O=c1cc(N2CCNCC2)oc2c(-c3ccccc3)cccc12 | 90.7%

Biological target: MAP4K5 (human) (UniProt Q9Y4K4)
Test: as above
Conditions: compound 0.5 µM; ATP 10 µM

SMILES | residual activity
Nc1nc(Nc2ccc(S(N)(=O)=O)cc2)nn1C(=S)Nc1c(F)cccc1F | 1.71%
O=C1Cc2c([nH]c3ccc([N+](=O)[O-])cc23)-c2ccccc2N1 | 15.9%
Cc1ccc(NC(=O)c2ccc(CN3CCN(C)CC3)cc2)cc1Nc1nc(-c2cccnc2)cs1 | 97%

Biological target: MARK1 (human) (UniProt Q9P0L2)
Test: as above
Conditions: compound 0.5 µM; ATP 10 µM

SMILES | residual activity
Nc1nc(Nc2ccc(S(N)(=O)=O)cc2)nn1C(=S)Nc1c(F)cccc1F | 2.68%
O=C1Cc2c([nH]c3ccc([N+](=O)[O-])cc23)-c2ccccc2N1 | 62.5%
Cc1ccc(NC(=O)c2ccc(CN3CCN(C)CC3)cc2)cc1Nc1nc(-c2cccnc2)cs1 | 86.9%
O=c1cc(N2CCNCC2)oc2c(-c3ccccc3)cccc12 | 99.3%

Biological target: TYRO3 (human) (UniProt Q06418)
Test: as above
Conditions: compound 0.5 µM; ATP 10 µM

Sequence of TYRO3 (human) (Q06418 whole entry, looked up): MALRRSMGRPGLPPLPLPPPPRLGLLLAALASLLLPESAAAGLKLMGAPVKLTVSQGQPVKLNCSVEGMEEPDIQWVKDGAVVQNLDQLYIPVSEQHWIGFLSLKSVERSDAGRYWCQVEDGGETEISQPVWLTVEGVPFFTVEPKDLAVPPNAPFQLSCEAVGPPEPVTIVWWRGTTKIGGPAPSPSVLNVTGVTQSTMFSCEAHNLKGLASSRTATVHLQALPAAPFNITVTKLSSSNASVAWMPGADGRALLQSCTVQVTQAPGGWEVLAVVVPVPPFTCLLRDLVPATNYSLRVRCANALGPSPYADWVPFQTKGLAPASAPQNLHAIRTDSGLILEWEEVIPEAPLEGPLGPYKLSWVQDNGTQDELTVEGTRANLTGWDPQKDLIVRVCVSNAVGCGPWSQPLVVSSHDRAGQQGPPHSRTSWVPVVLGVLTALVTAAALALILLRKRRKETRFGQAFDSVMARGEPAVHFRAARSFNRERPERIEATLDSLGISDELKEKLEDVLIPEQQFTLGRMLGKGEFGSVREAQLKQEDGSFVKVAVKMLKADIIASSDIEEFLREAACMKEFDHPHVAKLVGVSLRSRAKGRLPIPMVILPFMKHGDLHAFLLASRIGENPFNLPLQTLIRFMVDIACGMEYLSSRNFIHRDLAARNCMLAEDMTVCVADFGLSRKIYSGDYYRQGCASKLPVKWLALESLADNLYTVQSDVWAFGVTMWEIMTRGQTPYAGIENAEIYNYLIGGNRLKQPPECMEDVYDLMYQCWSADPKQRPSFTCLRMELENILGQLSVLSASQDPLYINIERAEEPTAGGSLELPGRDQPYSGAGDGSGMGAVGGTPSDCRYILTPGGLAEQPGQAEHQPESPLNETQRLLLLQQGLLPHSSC

SMILES | residual activity
Nc1nc(Nc2ccc(S(N)(=O)=O)cc2)nn1C(=S)Nc1c(F)cccc1F | 29.8%
O=C1Cc2c([nH]c3ccc([N+](=O)[O-])cc23)-c2ccccc2N1 | 96.7%
Cc1ccc(NC(=O)c2ccc(CN3CCN(C)CC3)cc2)cc1Nc1nc(-c2cccnc2)cs1 | 98.9%
O=c1cc(N2CCNCC2)oc2c(-c3ccccc3)cccc12 | 107%

Biological target: CDK5 CDK5R1 p35 (human) (UniProt Q00535+Q15078)
Test: as above
Conditions: compound 0.5 µM; ATP 10 µM

SMILES | residual activity
Nc1nc(Nc2ccc(S(N)(=O)=O)cc2)nn1C(=S)Nc1c(F)cccc1F | 11.3%
O=C1Cc2c([nH]c3ccc([N+](=O)[O-])cc23)-c2ccccc2N1 | 7.98%
Cc1ccc(NC(=O)c2ccc(CN3CCN(C)CC3)cc2)cc1Nc1nc(-c2cccnc2)cs1 | 100%
O=c1cc(N2CCNCC2)oc2c(-c3ccccc3)cccc12 | 102%

Biological target: PRKCH (human) (UniProt P24723)
Test: as above
Conditions: compound 0.5 µM; ATP 10 µM

SMILES | residual activity
Nc1nc(Nc2ccc(S(N)(=O)=O)cc2)nn1C(=S)Nc1c(F)cccc1F | 45.7%
O=C1Cc2c([nH]c3ccc([N+](=O)[O-])cc23)-c2ccccc2N1 | 96.9%
Cc1ccc(NC(=O)c2ccc(CN3CCN(C)CC3)cc2)cc1Nc1nc(-c2cccnc2)cs1 | 102%
O=c1cc(N2CCNCC2)oc2c(-c3ccccc3)cccc12 | 97%

Biological target: MARK2 (human) (UniProt Q7KZI7)
Test: as above
Conditions: compound 0.5 µM; ATP 10 µM

SMILES | residual activity
Nc1nc(Nc2ccc(S(N)(=O)=O)cc2)nn1C(=S)Nc1c(F)cccc1F | 3.43%
O=C1Cc2c([nH]c3ccc([N+](=O)[O-])cc23)-c2ccccc2N1 | 52.4%
Cc1ccc(NC(=O)c2ccc(CN3CCN(C)CC3)cc2)cc1Nc1nc(-c2cccnc2)cs1 | 104%
O=c1cc(N2CCNCC2)oc2c(-c3ccccc3)cccc12 | 105%

Biological target: FRK (human) (UniProt P42685)
Test: as above
Conditions: compound 0.5 µM; ATP 10 µM

Sequence of FRK (human) (P42685 whole entry, looked up): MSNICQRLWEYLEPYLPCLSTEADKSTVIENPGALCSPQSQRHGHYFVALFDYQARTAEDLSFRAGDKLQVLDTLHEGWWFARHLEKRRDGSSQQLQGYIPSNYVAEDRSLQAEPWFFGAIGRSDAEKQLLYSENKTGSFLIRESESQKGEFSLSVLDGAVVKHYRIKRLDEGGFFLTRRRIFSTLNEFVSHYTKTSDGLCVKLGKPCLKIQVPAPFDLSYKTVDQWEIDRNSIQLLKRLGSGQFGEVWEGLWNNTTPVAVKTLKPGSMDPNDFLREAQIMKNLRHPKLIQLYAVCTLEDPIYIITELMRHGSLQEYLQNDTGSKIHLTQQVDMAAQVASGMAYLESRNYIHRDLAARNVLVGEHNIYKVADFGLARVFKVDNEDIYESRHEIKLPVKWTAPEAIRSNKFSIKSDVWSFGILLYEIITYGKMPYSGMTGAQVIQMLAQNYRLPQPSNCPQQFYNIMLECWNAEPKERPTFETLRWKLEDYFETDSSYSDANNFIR

SMILES | residual activity
Nc1nc(Nc2ccc(S(N)(=O)=O)cc2)nn1C(=S)Nc1c(F)cccc1F | 70.6%
O=C1Cc2c([nH]c3ccc([N+](=O)[O-])cc23)-c2ccccc2N1 | 97.2%
O=c1cc(N2CCNCC2)oc2c(-c3ccccc3)cccc12 | 105%

Biological target: SGK2 (human) (UniProt Q9HBY8)
Test: as above
Conditions: compound 0.5 µM; ATP 10 µM

Sequence of SGK2 (human) (Q9HBY8 whole entry, looked up): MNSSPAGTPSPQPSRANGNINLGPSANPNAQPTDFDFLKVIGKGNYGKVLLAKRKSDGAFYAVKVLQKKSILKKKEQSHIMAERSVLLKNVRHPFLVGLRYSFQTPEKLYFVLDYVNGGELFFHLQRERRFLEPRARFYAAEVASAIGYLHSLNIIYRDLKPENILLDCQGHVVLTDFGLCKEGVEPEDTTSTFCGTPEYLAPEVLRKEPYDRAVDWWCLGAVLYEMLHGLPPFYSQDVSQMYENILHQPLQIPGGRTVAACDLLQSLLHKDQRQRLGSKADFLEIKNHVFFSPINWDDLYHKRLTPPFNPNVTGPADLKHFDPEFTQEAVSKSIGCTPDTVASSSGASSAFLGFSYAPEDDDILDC

SMILES | residual activity
Nc1nc(Nc2ccc(S(N)(=O)=O)cc2)nn1C(=S)Nc1c(F)cccc1F | 42%
O=C1Cc2c([nH]c3ccc([N+](=O)[O-])cc23)-c2ccccc2N1 | 111%
Cc1ccc(NC(=O)c2ccc(CN3CCN(C)CC3)cc2)cc1Nc1nc(-c2cccnc2)cs1 | 106%
O=c1cc(N2CCNCC2)oc2c(-c3ccccc3)cccc12 | 102%

Biological target: MAPK11 (human) (UniProt Q15759)
Test: as above
Conditions: compound 0.5 µM; ATP 10 µM

SMILES | residual activity
Nc1nc(Nc2ccc(S(N)(=O)=O)cc2)nn1C(=S)Nc1c(F)cccc1F | 78.5%
O=C1Cc2c([nH]c3ccc([N+](=O)[O-])cc23)-c2ccccc2N1 | 102%
Cc1ccc(NC(=O)c2ccc(CN3CCN(C)CC3)cc2)cc1Nc1nc(-c2cccnc2)cs1 | 102%
O=c1cc(N2CCNCC2)oc2c(-c3ccccc3)cccc12 | 105%

Biological target: MAP3K7 TAB1 (human) (UniProt O43318+Q15750)
Test: as above
Conditions: compound 0.5 µM; ATP 10 µM

SMILES | residual activity
Nc1nc(Nc2ccc(S(N)(=O)=O)cc2)nn1C(=S)Nc1c(F)cccc1F | 12.5%
O=C1Cc2c([nH]c3ccc([N+](=O)[O-])cc23)-c2ccccc2N1 | 67.5%
Cc1ccc(NC(=O)c2ccc(CN3CCN(C)CC3)cc2)cc1Nc1nc(-c2cccnc2)cs1 | 98.6%
O=c1cc(N2CCNCC2)oc2c(-c3ccccc3)cccc12 | 94.2%

Biological target: EPHB4 (human) (UniProt P54760)
Test: as above
Conditions: compound 0.5 µM; ATP 10 µM

SMILES | residual activity
Nc1nc(Nc2ccc(S(N)(=O)=O)cc2)nn1C(=S)Nc1c(F)cccc1F | 51%
O=C1Cc2c([nH]c3ccc([N+](=O)[O-])cc23)-c2ccccc2N1 | 87.2%
Cc1ccc(NC(=O)c2ccc(CN3CCN(C)CC3)cc2)cc1Nc1nc(-c2cccnc2)cs1 | 97.3%
O=c1cc(N2CCNCC2)oc2c(-c3ccccc3)cccc12 | 101%

Biological target: ALK (human) (UniProt Q9UM73)
Test: as above
Conditions: compound 0.5 µM; ATP 10 µM

Sequence of ALK (human) (Q9UM73 whole entry, looked up): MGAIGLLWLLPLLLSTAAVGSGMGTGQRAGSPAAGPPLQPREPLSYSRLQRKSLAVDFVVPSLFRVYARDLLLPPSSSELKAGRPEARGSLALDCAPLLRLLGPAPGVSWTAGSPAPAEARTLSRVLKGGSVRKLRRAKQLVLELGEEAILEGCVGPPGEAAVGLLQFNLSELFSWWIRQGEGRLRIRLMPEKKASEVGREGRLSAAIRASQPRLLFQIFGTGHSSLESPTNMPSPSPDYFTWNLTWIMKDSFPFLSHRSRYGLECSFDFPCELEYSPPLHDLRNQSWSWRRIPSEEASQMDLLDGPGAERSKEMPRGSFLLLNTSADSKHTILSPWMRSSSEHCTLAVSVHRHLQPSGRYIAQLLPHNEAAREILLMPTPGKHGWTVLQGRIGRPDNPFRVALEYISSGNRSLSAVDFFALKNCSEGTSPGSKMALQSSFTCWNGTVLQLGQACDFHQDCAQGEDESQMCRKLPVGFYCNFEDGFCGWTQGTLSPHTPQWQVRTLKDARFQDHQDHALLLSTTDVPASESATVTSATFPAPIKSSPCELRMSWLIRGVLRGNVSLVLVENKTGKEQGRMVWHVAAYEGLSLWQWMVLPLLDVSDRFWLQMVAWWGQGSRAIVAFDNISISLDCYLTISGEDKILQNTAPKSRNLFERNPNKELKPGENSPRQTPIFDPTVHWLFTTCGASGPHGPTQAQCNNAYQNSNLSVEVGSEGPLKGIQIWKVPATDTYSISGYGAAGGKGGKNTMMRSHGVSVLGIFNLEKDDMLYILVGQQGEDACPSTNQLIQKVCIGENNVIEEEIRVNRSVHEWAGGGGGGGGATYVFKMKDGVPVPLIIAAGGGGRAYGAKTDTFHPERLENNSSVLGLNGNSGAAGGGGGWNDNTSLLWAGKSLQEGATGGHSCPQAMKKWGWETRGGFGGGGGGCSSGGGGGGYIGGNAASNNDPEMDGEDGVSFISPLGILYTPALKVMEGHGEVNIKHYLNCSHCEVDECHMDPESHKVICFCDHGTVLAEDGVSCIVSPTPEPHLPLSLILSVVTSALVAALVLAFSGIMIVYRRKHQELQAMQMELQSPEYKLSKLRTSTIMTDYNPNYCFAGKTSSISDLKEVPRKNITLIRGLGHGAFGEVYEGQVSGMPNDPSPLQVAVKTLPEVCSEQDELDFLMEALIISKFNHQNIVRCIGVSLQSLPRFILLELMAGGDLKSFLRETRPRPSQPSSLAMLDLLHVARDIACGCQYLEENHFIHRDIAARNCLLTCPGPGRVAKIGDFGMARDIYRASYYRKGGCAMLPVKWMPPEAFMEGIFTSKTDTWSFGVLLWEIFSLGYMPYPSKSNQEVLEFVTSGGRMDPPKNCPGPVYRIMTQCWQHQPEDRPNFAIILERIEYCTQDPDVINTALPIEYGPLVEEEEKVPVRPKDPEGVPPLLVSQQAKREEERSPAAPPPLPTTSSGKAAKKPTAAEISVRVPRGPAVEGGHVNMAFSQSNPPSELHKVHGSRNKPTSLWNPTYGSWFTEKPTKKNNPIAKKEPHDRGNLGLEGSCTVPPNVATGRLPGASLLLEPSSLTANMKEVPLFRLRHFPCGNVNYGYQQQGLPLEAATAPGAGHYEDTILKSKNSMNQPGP

SMILES | residual activity
Nc1nc(Nc2ccc(S(N)(=O)=O)cc2)nn1C(=S)Nc1c(F)cccc1F | 16.7%
O=C1Cc2c([nH]c3ccc([N+](=O)[O-])cc23)-c2ccccc2N1 | 94.2%
Cc1ccc(NC(=O)c2ccc(CN3CCN(C)CC3)cc2)cc1Nc1nc(-c2cccnc2)cs1 | 103%
O=c1cc(N2CCNCC2)oc2c(-c3ccccc3)cccc12 | 83.8%

Biological target: FGFR1 (human) (UniProt P11362)
Test: as above
Conditions: compound 0.5 µM; ATP 10 µM

SMILES | residual activity
Nc1nc(Nc2ccc(S(N)(=O)=O)cc2)nn1C(=S)Nc1c(F)cccc1F | 6.59%
O=C1Cc2c([nH]c3ccc([N+](=O)[O-])cc23)-c2ccccc2N1 | 88.6%
Cc1ccc(NC(=O)c2ccc(CN3CCN(C)CC3)cc2)cc1Nc1nc(-c2cccnc2)cs1 | 103%
O=c1cc(N2CCNCC2)oc2c(-c3ccccc3)cccc12 | 110%

Biological target: CLK2 (human) (UniProt P49760)
Test: as above
Conditions: compound 0.5 µM; ATP 10 µM

SMILES | residual activity
Nc1nc(Nc2ccc(S(N)(=O)=O)cc2)nn1C(=S)Nc1c(F)cccc1F | 3.81%
O=C1Cc2c([nH]c3ccc([N+](=O)[O-])cc23)-c2ccccc2N1 | 97.7%
Cc1ccc(NC(=O)c2ccc(CN3CCN(C)CC3)cc2)cc1Nc1nc(-c2cccnc2)cs1 | 86%
O=c1cc(N2CCNCC2)oc2c(-c3ccccc3)cccc12 | 100%
